The NIST ThermoML archive (doi:10.1021/acs.jced.8b01048)
Numbers after ± are expanded uncertainties.

Test: xn = mol fraction of the nth substance listed
Settings: 100 kPa, Liquid, Vibrating tube method

CC(=O)[O-].CCn1cc[n+](C)c1 [1-ethyl-3-methylimidazolium acetate] + C[S+](C)[O-]
mass density (293.15 K, x2 = 0): 1101.7 ± 0.5 kg/m3
mass density (293.15 K, x2 = 0.053): 1102.4 ± 0.5 kg/m3
mass density (293.15 K, x2 = 0.103): 1103 ± 0.5 kg/m3
mass density (293.15 K, x2 = 0.196): 1103.8 ± 0.5 kg/m3
mass density (293.15 K, x2 = 0.301): 1104.9 ± 0.5 kg/m3
mass density (293.15 K, x2 = 0.401): 1105.8 ± 0.5 kg/m3
mass density (293.15 K, x2 = 0.501): 1106.6 ± 0.5 kg/m3
mass density (293.15 K, x2 = 0.6): 1107.4 ± 0.5 kg/m3
mass density (293.15 K, x2 = 0.686): 1107.6 ± 0.5 kg/m3
mass density (293.15 K, x2 = 0.802): 1107.2 ± 0.5 kg/m3
mass density (293.15 K, x2 = 0.899): 1105.4 ± 0.5 kg/m3
mass density (303.15 K, x2 = 0): 1095.6 ± 0.5 kg/m3
mass density (303.15 K, x2 = 0.053): 1096.3 ± 0.5 kg/m3
mass density (303.15 K, x2 = 0.103): 1096.9 ± 0.5 kg/m3
mass density (303.15 K, x2 = 0.196): 1097.5 ± 0.5 kg/m3
mass density (303.15 K, x2 = 0.301): 1098.4 ± 0.5 kg/m3
mass density (303.15 K, x2 = 0.401): 1099 ± 0.5 kg/m3
mass density (303.15 K, x2 = 0.501): 1099.5 ± 0.5 kg/m3
mass density (303.15 K, x2 = 0.6): 1099.9 ± 0.5 kg/m3
mass density (303.15 K, x2 = 0.686): 1099.9 ± 0.5 kg/m3
mass density (303.15 K, x2 = 0.802): 1098.8 ± 0.5 kg/m3
mass density (303.15 K, x2 = 0.899): 1096.3 ± 0.5 kg/m3
mass density (313.15 K, x2 = 0): 1089.6 ± 0.5 kg/m3
mass density (313.15 K, x2 = 0.053): 1090.3 ± 0.5 kg/m3
mass density (313.15 K, x2 = 0.103): 1090.8 ± 0.5 kg/m3
mass density (313.15 K, x2 = 0.196): 1091.2 ± 0.5 kg/m3
mass density (313.15 K, x2 = 0.301): 1091.8 ± 0.5 kg/m3
mass density (313.15 K, x2 = 0.401): 1092.2 ± 0.5 kg/m3
mass density (313.15 K, x2 = 0.501): 1092.4 ± 0.5 kg/m3
mass density (313.15 K, x2 = 0.6): 1092.5 ± 0.5 kg/m3
mass density (313.15 K, x2 = 0.686): 1092 ± 0.5 kg/m3
mass density (313.15 K, x2 = 0.802): 1090.4 ± 0.5 kg/m3
mass density (313.15 K, x2 = 0.899): 1087.3 ± 0.5 kg/m3
mass density (323.15 K, x2 = 0): 1083.7 ± 0.5 kg/m3
mass density (323.15 K, x2 = 0.053): 1084.2 ± 0.5 kg/m3
mass density (323.15 K, x2 = 0.103): 1084.5 ± 0.5 kg/m3
mass density (323.15 K, x2 = 0.196): 1084.8 ± 0.5 kg/m3
mass density (323.15 K, x2 = 0.301): 1085.2 ± 0.5 kg/m3
mass density (323.15 K, x2 = 0.401): 1085.3 ± 0.5 kg/m3
mass density (323.15 K, x2 = 0.501): 1085.4 ± 0.5 kg/m3
mass density (323.15 K, x2 = 0.6): 1085.1 ± 0.5 kg/m3
mass density (323.15 K, x2 = 0.686): 1084.3 ± 0.5 kg/m3
mass density (323.15 K, x2 = 0.802): 1082 ± 0.5 kg/m3
mass density (323.15 K, x2 = 0.899): 1078.3 ± 0.5 kg/m3
mass density (333.15 K, x2 = 0): 1077.7 ± 0.5 kg/m3
mass density (333.15 K, x2 = 0.053): 1078.1 ± 0.5 kg/m3
mass density (333.15 K, x2 = 0.103): 1078.3 ± 0.5 kg/m3
mass density (333.15 K, x2 = 0.196): 1078.4 ± 0.5 kg/m3
mass density (333.15 K, x2 = 0.301): 1078.7 ± 0.5 kg/m3
mass density (333.15 K, x2 = 0.401): 1078.7 ± 0.5 kg/m3
mass density (333.15 K, x2 = 0.501): 1078.3 ± 0.5 kg/m3
mass density (333.15 K, x2 = 0.6): 1077.8 ± 0.5 kg/m3
mass density (333.15 K, x2 = 0.686): 1076.6 ± 0.5 kg/m3
mass density (333.15 K, x2 = 0.802): 1073.7 ± 0.5 kg/m3
mass density (333.15 K, x2 = 0.899): 1069.3 ± 0.5 kg/m3
mass density (343.15 K, x2 = 0): 1071.8 ± 0.5 kg/m3
mass density (343.15 K, x2 = 0.053): 1072 ± 0.5 kg/m3
mass density (343.15 K, x2 = 0.103): 1072.2 ± 0.5 kg/m3
mass density (343.15 K, x2 = 0.196): 1072.2 ± 0.5 kg/m3
mass density (343.15 K, x2 = 0.301): 1072.1 ± 0.5 kg/m3
mass density (343.15 K, x2 = 0.401): 1071.8 ± 0.5 kg/m3
mass density (343.15 K, x2 = 0.501): 1071.3 ± 0.5 kg/m3
mass density (343.15 K, x2 = 0.6): 1070.4 ± 0.5 kg/m3
mass density (343.15 K, x2 = 0.686): 1068.9 ± 0.5 kg/m3
mass density (343.15 K, x2 = 0.802): 1065.4 ± 0.5 kg/m3
mass density (343.15 K, x2 = 0.899): 1060.3 ± 0.5 kg/m3
mass density (353.15 K, x2 = 0): 1065.9 ± 0.5 kg/m3
mass density (353.15 K, x2 = 0.053): 1066.1 ± 0.5 kg/m3
mass density (353.15 K, x2 = 0.103): 1066.1 ± 0.5 kg/m3
mass density (353.15 K, x2 = 0.196): 1065.9 ± 0.5 kg/m3
mass density (353.15 K, x2 = 0.301): 1065.6 ± 0.5 kg/m3
mass density (353.15 K, x2 = 0.401): 1065.2 ± 0.5 kg/m3
mass density (353.15 K, x2 = 0.501): 1064.4 ± 0.5 kg/m3
mass density (353.15 K, x2 = 0.6): 1063.1 ± 0.5 kg/m3
mass density (353.15 K, x2 = 0.686): 1061.2 ± 0.5 kg/m3
mass density (353.15 K, x2 = 0.802): 1057.1 ± 0.5 kg/m3
mass density (353.15 K, x2 = 0.899): 1051.3 ± 0.5 kg/m3
mass density (363.15 K, x2 = 0): 1060 ± 0.5 kg/m3
mass density (363.15 K, x2 = 0.053): 1060.1 ± 0.5 kg/m3
mass density (363.15 K, x2 = 0.103): 1060 ± 0.5 kg/m3
mass density (363.15 K, x2 = 0.196): 1059.8 ± 0.5 kg/m3
mass density (363.15 K, x2 = 0.301): 1059.3 ± 0.5 kg/m3
mass density (363.15 K, x2 = 0.401): 1058.4 ± 0.5 kg/m3
mass density (363.15 K, x2 = 0.501): 1057.5 ± 0.5 kg/m3
mass density (363.15 K, x2 = 0.6): 1055.8 ± 0.5 kg/m3
mass density (363.15 K, x2 = 0.686): 1053.6 ± 0.5 kg/m3
mass density (363.15 K, x2 = 0.802): 1048.8 ± 0.5 kg/m3
mass density (363.15 K, x2 = 0.899): 1042.3 ± 0.5 kg/m3
mass density (373.15 K, x2 = 0): 1054.2 ± 0.5 kg/m3
mass density (373.15 K, x2 = 0.053): 1054.1 ± 0.5 kg/m3
mass density (373.15 K, x2 = 0.103): 1054 ± 0.5 kg/m3
mass density (373.15 K, x2 = 0.196): 1053.6 ± 0.5 kg/m3
mass density (373.15 K, x2 = 0.301): 1052.9 ± 0.5 kg/m3
mass density (373.15 K, x2 = 0.401): 1051.8 ± 0.5 kg/m3
mass density (373.15 K, x2 = 0.501): 1050.6 ± 0.5 kg/m3
mass density (373.15 K, x2 = 0.6): 1048.5 ± 0.5 kg/m3
mass density (373.15 K, x2 = 0.686): 1046 ± 0.5 kg/m3
mass density (373.15 K, x2 = 0.802): 1040.4 ± 0.5 kg/m3
mass density (373.15 K, x2 = 0.899): 1033.2 ± 0.5 kg/m3
